# From patent US10702498B2 (priority 2015, dated 2020)
# Entries after “also recorded” stand apart in the source; their conditions may differ. Read-outs that look alike come from different tables or passages of the source.
# Key:
# [1] = target: T1, μOR (Homo sapiens (Human), UniProt P35372); assay: cell-based; assay type: cell-based
# [2] = target: T2, μOR β-arrestin2 recruitment (Homo sapiens (Human), UniProt P35372); assay: β-Arrestin2 recruitment without GRK2 co-expression (BRET); assay type: cell-based
# [3] = target: human μOR β-arrestin2 recruitment + GRK2 (Homo sapiens (Human), UniProt P35372); assay: β-Arrestin2 recruitment with GRK2 co-expression (BRET); assay type: cell-based
# [4] = target: MOR (Homo sapiens (Human), UniProt P35372); assay: Functional annotation (MOR agonist / antagonist), method not stated
# [5] = target: hMOR + Gqi5 (Homo sapiens (Human), UniProt P35372); assay: IP accumulation assay; assay type: cell-based; details: % morphine
# [6] = target: T1, μOR; assay: biochemical; assay type: binding
# [7] = target: T3, κOR (Homo sapiens (Human), UniProt P41145); assay type: binding; details: no Ki given
# [8] = target: T1, μOR; details: no Ki given
# [9] = target: T2, μOR β-arrestin2 recruitment; assay: β-Arrestin recruitment, PathHunter enzyme complementation assay (DiscoveRx OPRM1 CHO-K1); assay type: cell-based
# [10] = target: nociceptin receptor (Homo sapiens (Human), UniProt P41146); assay: Gi/o Glosensor assay
# [11] = target: T1, μOR; assay: BRET-based cAMP accumulation assay (Gi/o signaling, SAR of PZM21-29); assay type: cell-based
# [12] = target: humanDOR (Homo sapiens (Human), UniProt P41143); assay: Receptor binding, [3H]diprenorphine
# humanDOR, sequence (P41143 whole entry): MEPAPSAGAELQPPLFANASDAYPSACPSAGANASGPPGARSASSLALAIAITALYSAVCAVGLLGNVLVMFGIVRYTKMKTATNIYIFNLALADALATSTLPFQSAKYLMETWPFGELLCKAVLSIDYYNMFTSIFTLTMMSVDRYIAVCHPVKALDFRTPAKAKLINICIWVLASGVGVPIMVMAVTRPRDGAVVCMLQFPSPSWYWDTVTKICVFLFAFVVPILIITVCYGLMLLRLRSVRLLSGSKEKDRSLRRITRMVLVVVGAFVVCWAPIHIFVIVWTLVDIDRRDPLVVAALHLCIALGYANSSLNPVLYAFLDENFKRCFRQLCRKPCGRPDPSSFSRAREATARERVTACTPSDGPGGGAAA
# [13] = target: hKOR (Homo sapiens (Human), UniProt P41145); assay: Receptor binding, [3H]diprenorphine
# hKOR, sequence (P41145 whole entry): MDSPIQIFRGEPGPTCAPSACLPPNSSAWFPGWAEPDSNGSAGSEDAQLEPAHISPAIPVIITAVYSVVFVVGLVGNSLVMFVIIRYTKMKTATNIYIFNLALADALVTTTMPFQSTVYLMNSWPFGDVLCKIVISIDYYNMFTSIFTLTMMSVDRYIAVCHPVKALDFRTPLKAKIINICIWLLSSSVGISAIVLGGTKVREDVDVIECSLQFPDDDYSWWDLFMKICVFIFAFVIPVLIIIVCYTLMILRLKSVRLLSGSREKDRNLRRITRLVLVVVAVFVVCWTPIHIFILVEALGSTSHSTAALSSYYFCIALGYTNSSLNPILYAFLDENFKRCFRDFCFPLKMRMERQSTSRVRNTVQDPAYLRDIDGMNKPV
# [14] = test system: 316 other GPCRs; assay: PRESTO-Tango GPCRome β-arrestin recruitment counter-screen; assay type: cell-based; details: 10 μM screen, hits re-tested in full dose-response
# From the text: Potential positive receptor hits were defined as those that increase the relative luminescence value by two fold. […] A number of false positive hits were discounted by this approach.
# [15] = target: T1, μOR; assay: Calcium release (FLIPR); assay type: cell-based
# Experimental: Calcium release was measured using a FLIPR^TETRA fluorescence imaging plate reader (Molecular Devices). Calcium release experiments were run in parallel to Gi/o Glosensor experiments with the same HEKT cells transfected with μOR, except cells for FLIPR were plated in poly-lysine coated 384-well black clear bottom cell culture plates. […] Dye was incubated for 1 hour at 37° C. Afterwards, cells were equilibrated to room temperature, and fluorescence in each well was read for the initial 10 seconds to establish a baseline. Afterwards, 10 μL of drug (3×) was added per well and the maximum-fold increase in fluorescence was determined as fold-over-baseline. Drug solutions used for the FLIPR assay were exactly the same as used for Gi/o Glosensor experiments. To activate endogenous Gq-coupled receptors as a positive control for calcium release, TFLLR-NH2 (10 μM, PAR-1 selective agonist) was used.
# [16] = target: T1, μOR; assay: Receptor internalization (PathHunter GPCR internalization, U2OS cells); assay type: cell-based
# [17] = test system: C57BL/6J mice; assay: Hot-plate analgesia assay; assay type: in vivo; details: mouse
# [18] = test system: C57BL/6J mice; assay: Tail-flick assay; assay type: in vivo; details: mouse
# [19] = test system: Oprm1−/− and wild-type C57Bl/6J mice; assay: Hot-plate: affective/reflexive subcategorization and μOR knockout mice; assay type: in vivo, mouse
# [20] = test system: mice; assay: Formalin injection assay; assay type: in vivo; details: mouse
# [21] = test system: mice; assay: Conditioned place preference; assay type: in vivo; details: mouse
# Experimental: On day 1 (preconditioning day), mice were placed in the central chamber and allowed to explore freely for 30 minutes. Time spent in each compartment was used to estimate baseline chamber preferences and mice showing specific chamber bias more than 70% were not studied further. On days 2-9 (conditioning days) mice were injected with either vehicle or drug and paired with either the white mesh or the black rod chambers. All mice received vehicle on days 2, 4, 6, 8 and drug on days 3, 5, 7, 9. On day 10 (test day), mice were again placed in the central chamber as on day 1 and allowed to explore freely for 30 minutes. Time spent in each chamber was expressed as percentage preference.
# [22] = Pharmacokinetics: serum and brain concentrations; assay type: in vivo; details: mouse
# Experimental: Studies were performed by the Preclinical Therapeutics Core and the Drug Studies Unit at the University of California San Francisco. […] All studies were performed with approved mouse protocols from the institutional animal care and use committees.
# [23] = test system: μOR Gi/o versus β-arrestin signaling; assay: Ligand bias calculation (operational model)
# [24] = test system: mice; assay: Catalepsy bar test; details: mouse
# [25] = target: δOR (Homo sapiens (Human), UniProt P41143); assay: Gi/o Glosensor assay
# [26] = test system: mice; assay: Open field locomotor response; details: mouse
# [27] = target: T3, κOR; assay: Gi/o Glosensor assay (agonist and antagonist mode)
# [28] = test system: mice; assay: Accumulated fecal boli quantification (constipation); details: mouse
# [29] = test system: mice; assay: Whole body plethysmography (respiration); details: mouse; equianalgesic doses PZM21 40 mg/kg, TRV130 […], morphine 10 mg/kg
# T1 sequence (P35372 whole entry): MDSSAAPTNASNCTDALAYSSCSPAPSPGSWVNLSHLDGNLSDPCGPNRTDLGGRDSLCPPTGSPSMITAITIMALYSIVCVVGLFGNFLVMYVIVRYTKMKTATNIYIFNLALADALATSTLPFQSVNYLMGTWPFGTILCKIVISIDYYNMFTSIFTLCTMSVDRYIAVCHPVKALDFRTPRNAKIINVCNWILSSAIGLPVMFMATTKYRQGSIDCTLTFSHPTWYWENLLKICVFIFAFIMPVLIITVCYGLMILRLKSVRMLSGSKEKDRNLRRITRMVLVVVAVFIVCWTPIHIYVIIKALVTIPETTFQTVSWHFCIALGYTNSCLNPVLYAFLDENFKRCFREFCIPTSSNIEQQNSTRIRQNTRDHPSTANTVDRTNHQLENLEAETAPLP
smiles,measurement,setting,value
"CN(C)[C@H](CNC(=O)NCCc1ccsc1)Cc1ccc(O)cc1 [DD 16, (S)-1-(2-(dimethylamino)-3-(4-hydroxyphenyl)propyl)-3-(2-(thiophen-3-yl)ethyl)urea]",Gi/o pEC50,[1],8.122
same,Arrestin pEC50,[2],6.387
same,Arrestin + GRK2 pEC50,[3]; GRK2 co-expressed,6.843
same,EC50,[4]; read-out: MOR agonist (potency printed under structure),0.058 µM
"Cc1cc(O)cc(C)c1C[C@@H](CNC(=O)NCCN1C(=O)C=CC1=O)N(C)C [DD 144, (S)-1-(2-(dimethylamino)-3-(4-hydroxy-2,6-dimethylphenyl)propyl)-3-(2-(2,5-dioxo-2,5-dihydro-1H-pyrrol-1-yl)ethyl)urea]",functional mode,[4],"DD 144 (ANTAGONIST, Covalent) [drawing 452]"
"Cc1cc(O)cc(C)c1C[C@@H](CNC(=O)NCCc1ccsc1)N(C)C [DD 34L, (S)-1-(2-(dimethylamino)-3-(4-hydroxy-2,6-dimethylphenyl)propyl)-3-(2-(thiophen-3-yl)ethyl)urea]",hMOR + Gqi5 IP accumulation assay efficacy a,[5],a: <5%
same,functional mode,[4],DD 34L (ANTAGONIST) [drawing 446]
CCN1CCC[C@@H](NC(=O)NCCc2ccc(OC(C)C)cc2)C1 [compound 6],Ki,[6],10 µM
"Cc1cc(O)cc(C)c1C[C@@H](CNC(=O)N[C@H](C)Cc1ccsc1)N(C)C [BD 131LR, 1-((S)-2-(dimethylamino)-3-(4-hydroxy-2,6-dimethylphenyl)propyl)-3-((R)-1-(thiophen-3-yl)propan-2-yl)urea]",hMOR + Gqi5 IP accumulation assay efficacy a @ 10 μM,[5]; @ 10 μM,@ 10 μM a: 10%
CN(C)[C@@H](CNC(=O)NC[C@@H](O)c1cnn(C)c1)Cc1ccccc1 [compound 11],"κOR binding, given as <50%",[7],<50%
O=C(Cc1cn2ccccc2n1)NCC1(c2ccccc2)CCC1 [compound 9],"μOR binding, given as <50%",[8],<50%
C[C@H](Cc1ccsc1)NC(=O)NC[C@@H](Cc1ccccc1)N(C)C [compound 12],Emax,[1]; read-out: Gi/o (Glosensor) Emax (%) μOR,88%
same,Emax,[9]; read-out: Arrestin recruitment (PathHunter) Emax (%) μOR,9.4%
same,Emax,[10]; read-out: Gi/o (Glosensor) Emax (%) nociceptin,43%
"CN(C)[C@H](CNC(=O)NCCc1cn(CCSSCCN=[N+]=[N-])nn1)Cc1ccc(O)cc1 [PZM29, (S)-1-(2-(1-(2-((2-Azidoethyl)disulfanyl)ethyl)-1H-1,2,3-triazol-4-yl)ethyl)-3-(2-(dimethylamino)-3-(4-hydroxyphenyl)propyl)urea×CF3COOH]",agonist efficacy / potency in Gi/o signaling assay,[11],retains its efficacy as an agonist
C[C@H](Cc1ccsc1)NC(=O)NC[C@H](Cc1ccc(O)cc1)N(C)C (stereo in doubt) [BD 122LR],Ki,[12],88 ± 16 nM
same,Ki,[12]; read-out: binding affinity Ki [nM] hDOR,88 nM
same,Ki,[13]; binding affinity Ki [nM] hKOR,190 nM
same,Ki,[13]; hKOR [3H]dyprenorphine Ki,190 ± 23 nM
same,hMOR + Gqi5 IP accumulation assay efficacy a,[5],a: 17%
CN(Cc1nnc(C2CC2)n1C)C(=O)NC[C@@H](Cc1ccccc1)N(C)C [compound 10],"κOR binding, given as <50%",[7],<50%
"C[C@@H](Cc1ccsc1)NC(=O)NC[C@H](Cc1ccc(O)cc1)N(C)C [PZM21, 1-[(S)-2-(Dimethylamino)-3-(4-hydroxyphenyl)propyl]-3-((S)-1-(thiophen-3-yl)propan-2-yl)urea]",Gi/o activation / μOR agonist activity,[1],robust μOR agonist activity
same,effect on cAMP levels with pertussis toxin,[1],eliminated by pertussis toxin
same,β-arrestin2 recruitment in PathHunter assay,[9],undetectable β-arrestin2 recruitment; also recorded: minimal recruitment of β-arrestin2; also recorded: no detectable 3-arrestin2 recruitment
same,Ki,[12],470 ± 98 nM
same,Ki,[13]; hKOR [3H]dyprenorphine Ki,33 ± 5.6 nM
same,hMOR + Gqi5 IP accumulation assay efficacy a,[5],a: 73%
same,β-arrestin2 recruitment in the absence of GRK2,[2],no β-arrestin2 recruitment
same,arrestin recruitment with over-expressed GRK2,[3],weak arrestin recruitment efficacy compared to DAMGO and even to morphine; also recorded: we observe arrestin recruitment
same,agonism against 316 other GPCRs,[14],no potent activity was confirmed with a full dose-response experiment
same,calcium release,[15],no activity was observed in a calcium release assay
same,μOR internalization,[16],minimal level of μOR internalization compared to DAMGO and morphine
same,hot-plate analgesia,[17]; s.c.,dose-dependent analgesia
same,hot-plate percent maximal possible effect (% MPE),[17]; 15 minutes after the highest dose tested,87%
same,tail-flick analgesia,[18],no activity in a tail flick assay; also recorded: no analgesic effect
same,analgesia in μOR knockout mice,[19]; hot-plate,genetic knockout of the μOR completely ablates the observed analgesic response
same,affective versus reflexive component of pain,[19]; mouse hot-plate,only modulates the affective component of pain; also recorded: solely confers analgesia to the affective component of pain
same,formalin injection nociception,[20],active in a formalin injection nociception assay
same,conditioned place preference,[21],does not induce a conditioned place preference response
same,blood brain barrier penetration,[22],substantial fraction of PZM21 crosses the blood brain barrier
same,signaling bias,[23],undistinguishable from TRV130; also recorded: substantially exceeded that of herkinorin
same,cataleptic effect,[24],does not induce cataleptic behavior; also recorded: does not reflect a cataleptic effect
same,Emax,[25]; read-out: Gi/o (Glosensor) Emax (%) δOR,78%
same,weaker δOR agonist than μOR agonist,[25]; selectivity,500 fold
same,nociceptin receptor agonist activity,[10],no detectable KOR or nociceptin receptor agonist activity
same,open field locomotion,[26],does not induce open field locomotion; also recorded: no apparent effect on locomotion versus vehicle
same,"activity at KOR (antagonist mode, words)",[27],antagonist at KOR
same,κOR agonist activity,[27],no detectable KOR or nociceptin receptor agonist activity; also recorded: lack of agonist activity
same,constipation effect / defecation,[28],reduced constipatory effects as compared to morphine; also recorded: substantially less than morphine
Cc1nc(CNC(=O)NC[C@@H](Cc2ccccc2)N(C)C)sc1C [compound 15],"κOR binding, given as <50%",[7],<50%
"COc1ccsc1CNCC[C@@]1(c2ccccn2)CCOC2(CCCC2)C1 [TRV130, reference compound]",β-arrestin2 recruitment in the absence of GRK2,[2],no β-arrestin2 recruitment
same,arrestin recruitment with over-expressed GRK2,[3],we observe arrestin recruitment
same,conditioned place preference,[21],not significant relative to vehicle
same,respiration frequency / respiratory depression,[29],significantly depresses respiration at 15 minutes
same,κOR agonist activity,[27],activates KOR with similar potency to morphine
